Earlier results as cited in patent US20020192774A1, “Method for processing lignocellulosic material” (priority 2000, published 2002).

Tested on: yeast
Details: pH values as low as 4.5; Taherzadeh et al., 1997

CC(=O)O [Acetic acid]
acetate concentration at which yeast is able to grow: 10 g acetate per litre
